Results as given in US20210161130A1, “COMPOSITIONS FOR ATTRACTING PESTS AND USES THEREOF” (DOMOBIOS, priority 2018, published 2021).

Assays:
Type in all cases: in vivo
Tyrophagus putrescentiae [1] = experiment: Two-choice bioassay (filter paper rectangles), attraction of mites
Procedure: (§1) A composition comprising menthone was prepared by diluting liquid menthone with a density of 0.894 (mixture of stereoisomers L-menthone and D-isomenthone, with 98% purity, from Alfa Aesar, Haverhill, USA) in water to obtain a concentration of 0.1 μl/mL (i.e., 10^−4 L/L), corresponding to a concentration of about 0.0894 mg/mL or a concentration of about 0.00894% (w/v). Said composition has a molar concentration of menthone of about 0.58 mM.
(§2) Compositions comprising menthone at different concentrations were prepared by serial dilutions in water of the composition comprising menthone at 10^−4 L/L (from 10^−4 L/L to 10^−8 L/L, i.e., from about 0.0894 mg/mL to about 8.94 ng/mL) and their capacity to attract acarids was tested.
(§3) A composition comprising peppermint oil (also known as essential oil of Mentha piperita), which itself comprises menthone, was prepared by diluting peppermint oil with a density of 0.898 g/mL (natural peppermint oil from Mentha piperita L., Sigma, St Louis, USA) in water to obtain a concentration of 0.1 μl/mL (i.e., 10^−4 L/L), corresponding to a concentration of about 0.0898 mg/mL or a concentration of about 0.00898% (w/v). Compositions comprising peppermint oil at different concentrations were prepared by serial dilutions in water of the composition comprising peppermint oil at 10^−4 L/L (from 10^−4 L/L to 10^−6 L/L, i.e., from about 0.0898 mg/mL to about 0.898 μg/mL) and their capacity to attract acarids was tested.
The experimental protocol was inspired by the quantitative choice bioassay run by Synder et al., in 1993. Said bioassay consisted of two rectangles of filter paper of equal dimensions, positioned so as to be parallel to each other and less than 2 cm apart in a petri dish with a 6 cm diameter. 10 μL microliters of the composition comprising menthone, either alone (i.e., isolated) or within peppermint oil, were loaded on one rectangle and 10 μL of solvent (i.e., water) were loaded on the other as a control. After the solvent evaporated, a small strip of filter paper was used to bridge the rectangles. A group of 30-40 mites was then transferred to the middle of the bridge and their movements were observed. The rectangle for which they exited the bridge was recorded. Each assay comprised two sets of rectangles of filter paper connected with a bridge, with the composition comprising menthone, either alone (i.e., isolated) or within peppermint oil, loaded on opposing rectangles in each set (e.g., rectangle on the left in the first set, and rectangle on the right in the second set). Data were submitted to Fisher analysis.
(§4) Statistical significance was assessed using a Fisher's exact test.

Dermatophagoides farinae [2] = experiment: Simulated use test, infested cushion covered with sprayed sheet; details: menthone 10^−6 L/L, 6 sprays on sheet, 1 h, cushion infested with three mite species, N = 3
Procedure: (§5) A composition comprising menthone at a concentration of 10^−6 L/L was prepared by diluting 1 μL liquid menthone as described hereinabove (mixture of stereoisomers L-menthone and D-isomenthone, with 98% purity, from Alfa Aesar, Haverhill, USA) in 1 L of water. Hereafter, said composition is referred to as “compositions comprising menthone alone” or “compositions comprising menthone”.
(§6) A composition comprising peppermint oil at a concentration of 10^−5 L/L was prepared by diluting 10 μL peppermint oil (natural peppermint oil from Mentha piperita L., Sigma, St Louis, USA) as described hereinabove in 1 L of water. Hereafter, said composition is referred to as “composition comprising menthone within peppermint oil” or “composition comprising peppermint oil”.
(§7) In order to simulate real-life utilization of the composition for attracting pests of the invention, a common household furniture such as a cushion was infested with living mites and treated with a composition comprising menthone at a concentration of 10^−6 L/L (corresponding to a concentration of menthone of about 9×10^−4 mg/mL) or with a composition comprising peppermint oil at a concentration of 10^−5 L/L (corresponding to a concentration of peppermint oil of about 9×10^−3 mg/mL). As described in Japanese application JP2000336007 and in U.S. Pat. No. 6,415,545, the treatment consisted in laying a sheet on the infested household furniture and spraying the compositions to be tested over it. The number of attracted and unattracted mites was then counted to evaluate the efficacy of the tested composition. All the tests were run at 20-25° C. and 30-35% relative humidity, conditions normally found in households.
(§8) Brand new cushions (43×30×6 cm, Tom&Co) were infested with 400 Tyrophagus putrescentiae, 100 Dermatophagoides farinae and 100 Dermatophagoides pteronyssinus. The proportion of each species respected the average composition of natural mite populations that can be found in a pet basket: ⅔ of storage mites, ⅓ of house dust mites. Small pieces of dry dog food were spread over the cushions as a nourishment for mites. After the infestation, mites were allowed to settle down for 15 hours.
(§9) After 15 hours, a dark sheet was placed over the cushion to be treated. The size of the sheet was sufficient to cover the entire upper surface of the cushion (43×30 cm). The sheet was sprayed 6 times (total volume sprayed about 4 ml) with a composition comprising menthone, either alone (i.e., isolated) or within peppermint oil, or with water (control), keeping the bottle at a distance of about 30 cm from the sheet to be sprayed. A dry control was also used, corresponding to an untreated sheet, i.e., a sheet that was not sprayed. Sprays were evenly distributed in order to cover the totality of the sheet. The sheet was left in place for 1 h. 3 replicates were run with the composition comprising menthone, either alone (i.e., isolated) or within peppermint oil, and 3 replicates were run with the control.
(§10) In order to determine the number of mites within an infested place, the usual method is to vacuum the infested place (Wassenaar 1988). Each sheet was vacuumed for 2 minutes using a special filter (as described in the European patent application EP0630478) that retains the collected dust. The dust sample was then analyzed (see Step 4) in order to determine the number of mites attracted by the composition comprising menthone, either alone (i.e., isolated) or within peppermint oil. Similarly, after removal of the sheet, each cushion was vacuumed to determine the number of remaining mites (i.e., the number of mites that were not attracted by the composition comprising menthone, either alone (i.e., isolated) or within peppermint oil). The relative proportion of mites into the sheet and into the cushion determined the efficacy of the treatment (see Step 4). […]

Total number of mites = experiment: as above
Procedure: as §5, §6, §7, §8, §9, §10

Tyrophagus putrescentiae [3] = experiment: as above; details: menthone 10^−6 L/L, 6 sprays on sheet, 1 h, cushion infested with three mite species, N = 3
Procedure: as §5, §6, §7, §8, §9, §10

[4] = test system: Dermatophagoides pteronyssinus; experiment: as above; details: menthone 10^−6 L/L, 6 sprays on sheet, 1 h, cushion infested with three mite species, N = 3
Procedure: as §5, §6, §7, §8, §9, §10

Dermatophagoides farinae [5] = experiment: Two-choice bioassay (vegetable fiber support discs), attraction of mites
Procedure: as §1, §2, §3
(§11) Responses of Dermatophagoides spp. to compositions comprising menthone, either alone (i.e., isolated) or within peppermint oil, were tested in a two-choice bioassay as described in Otieno et al., 1985. Said bioassay comprised two support discs made of vegetable fiber (with a diameter of 1.7 cm), i.e., a test support and a control support, placed in a Petri dish (with a diameter of 6 cm) kept at 20-28° C. in the dark at 30% humidity. Compositions comprising menthone, either alone (i.e., isolated) or within peppermint oil, (50 μL or less) were applied via a syringe to the test support. The control support was loaded with water only. An appropriate number of mites were placed in the center of the dish, equidistant from the test support and the control support. The bioassay system was then left for 24 hr or less at 20-28° C. in the dark at 30% humidity before a count of the mites assembled on the test support and on the control support was made. Several replicates were run for each test.
as §4

[6] = test system: Dermatophagoides pteronyssinus; experiment: as above
Procedure: as §1, §2, §3, §11, §4

[7] = composition comprising menthone 10^−4 L/L in water vs water
[8] = composition comprising menthone 10^−5 L/L in water vs water
[9] = composition comprising menthone 10^−6 L/L in water vs water
[10] = composition comprising menthone 10^−7 L/L in water vs water
[11] = composition comprising menthone 10^−8 L/L in water vs water

Structure (SMILES): CC1CCC(C(C)C)C(=O)C1 (stereo not shown) [menthone]
- Mean efficiency (Tyrophagus putrescentiae [1]; [7]): 50%
- Mean efficiency (Tyrophagus putrescentiae [1]; [8]): 47%
- Mean efficiency (Tyrophagus putrescentiae [1]; [9]): 57%
- Mean efficiency (Tyrophagus putrescentiae [1]; [10]): 53%
- Mean efficiency (Tyrophagus putrescentiae [1]; [11]): 49%
- Efficacy (mites attracted out of the cushion) (Dermatophagoides farinae [2]): 47%
- Efficacy (mites attracted out of the cushion) (Dermatophagoides farinae [2]; listed as Menthone): 47% (±6%)
- more mites attracted out of the infested cushion compared to the control (Total number of mites; menthone 10^−6 L/L vs water control, Fisher's exact test, p-value=0.0006): 21%
- Efficacy (mites attracted out of the cushion) (Total number of mites; menthone 10^−6 L/L, 6 sprays on sheet, 1 h, cushion infested with three mite species, N = 3): 54% (±5%)
- Efficacy (mites attracted out of the cushion) (Tyrophagus putrescentiae [3]): 69%
- Efficacy (mites attracted out of the cushion) (Tyrophagus putrescentiae [3]; listed as Menthone): 69% (±8%)
- Efficacy (mites attracted out of the cushion) [4]: 44%
- Efficacy (mites attracted out of the cushion) ([4]; listed as Menthone): 44%
- Mean efficiency (Dermatophagoides farinae [5]; [7]): 41%
- Mean efficiency (Dermatophagoides farinae [5]; [8]): 40%
- Mean efficiency (Dermatophagoides farinae [5]; [9]): 62%
- Mean efficiency (Dermatophagoides farinae [5]; [10]): 49%
- Mean efficiency (Dermatophagoides farinae [5]; [11]): 51%
- Mean efficiency [6, 7]: 42%
- Mean efficiency [6, 8]: 50%
- Mean efficiency [6, 9]: 67%
- Mean efficiency [6, 10]: 42%
